Assay results taken from ChEMBL document CHEMBL1146853, “Proton dissociation is important to understanding structure-activity relationships of gallic acid antioxidants” (Bioorg Med Chem Lett, 2006).

Columns and labels:
[1] = tested on: Radical scavenging activity; experiment: DPPH radical scavenging activity in ethanol solution; format: functional
[2] = tested on: Radical scavenging activity; experiment: DPPH radical scavenging activity in liposome; format: functional

IC50 ([1]; read-out: IC50) [µM]	IC50 ([2]; read-out: IC50) [µM]	SMILES	IC50 [1]	IC50 [2]
		COc1cc(C(=O)O)cc(O)c1OC	Not Active	Not Active
		COc1cc(C(=O)O)cc(OC)c1OC [3,4,5-TRIMETHOXYBENZOIC ACID]	Not Active	Not Active
7.2	8.4	COC(=O)c1cc(O)c(O)c(O)c1 [GALLIC ACID METHYL ESTER]		
7.3	7.4	COc1cc(C(=O)O)cc(OC)c1O [SYRINGIC ACID]		

SMILES	IC50 ([1]; read-out: IC50) [µM]	IC50 ([2]; read-out: IC50) [µM]	IC50 [1]	IC50 [2]
O=C(O)c1cc(O)c(O)c(O)c1 [GALLIC ACID]	6	7.3		
